Data reported in ChEMBL document CHEMBL1201862, “PubChem BioAssay data set” (2004).
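Tested at 5 concentrations; 48 h exposure; 96-well plates; endpoints linearly interpolated, else capped at highest concentration. Here, GI50 denotes the concentration required for 50% inhibition of growth.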 The source made the active and inactive calls. Rule as the data show it: active = GI50 up to about 1.1 µM and inactive = higher.

Experiments:
Assay in all cases: NCI tumour cell line growth inhibition, 48 h
[1] = test system: 786-0
[2] = test system: A498
[3] = test system: A549
[4] = test system: ACHN
[5] = test system: BT-549
[6] = test system: CAKI-1
[7] = test system: CCRF-CEM
[8] = test system: COLO 205
[9] = test system: DU-145
[10] = test system: EKVX
[11] = test system: HCC 2998
[12] = test system: HCT-116
[13] = test system: HCT-15
[14] = test system: HL-60
[15] = test system: HOP-62
[16] = test system: HOP-92
[17] = test system: HT-29
[18] = test system: Hs-578T
[19] = test system: IGROV-1
[20] = test system: K562
[21] = test system: KM12
[22] = test system: LOX IMVI
[23] = test system: M14
[24] = test system: MCF7
[25] = test system: MDA-MB-231
[26] = test system: MDA-MB-435
[27] = test system: MDA-N
[28] = test system: Malme-3M
[29] = test system: NCI-H23
[30] = test system: NCI-H460
[31] = test system: NCI-H522
[32] = test system: NCI/ADR-RES
[33] = test system: OVCAR-3
[34] = test system: OVCAR-4
[35] = test system: OVCAR-5
[36] = test system: OVCAR-8
[37] = test system: PC-3
[38] = test system: RPMI-8226
[39] = test system: RXF 393
[40] = test system: SF-268
[41] = test system: SF-295
[42] = test system: SF-539
[43] = test system: SK-MEL-28
[44] = test system: SK-MEL-2
[45] = test system: SK-MEL-5
[46] = test system: SK-OV-3
[47] = test system: SN12C
[48] = test system: SNB-19
[49] = test system: SNB-75
[50] = test system: SR
[51] = test system: SW-620
[52] = test system: T47D
[53] = test system: TK-10
[54] = test system: U-251
[55] = test system: UACC-257
[56] = test system: UACC-62
[57] = test system: UO-31
[58] = test system: MOLT-4
[59] = test system: NCI-H226

Nc1cc(S(=O)(=O)O)cc2ccc(S(=O)(=O)O)cc12
GI50 [1]: > 100 µM (inactive)
GI50 [2]: > 100 µM (inactive)
GI50 [3]: > 100 µM (inactive)
GI50 [4]: > 100 µM (inactive)
GI50 [5]: > 100 µM (inactive)
GI50 [6]: > 100 µM (inactive)
GI50 [7]: > 100 µM (inactive)
GI50 [8]: > 100 µM (inactive)
GI50 [9]: > 100 µM (inactive)
GI50 [10]: > 100 µM (inactive)
GI50 [11]: > 100 µM (inactive)
GI50 [12]: > 100 µM (inactive)
GI50 [13]: > 100 µM
GI50 [14]: > 100 µM (inactive)
GI50 [15]: > 100 µM (inactive)
GI50 [16]: > 100 µM (inactive)
GI50 [17]: > 100 µM (inactive)
GI50 [18]: > 100 µM (inactive)
GI50 [19]: > 100 µM (inactive)
GI50 [20]: > 100 µM (inactive)
GI50 [21]: > 100 µM (inactive)
GI50 [22]: > 100 µM (inactive)
GI50 [23]: > 100 µM (inactive)
GI50 [24]: > 100 µM (inactive)
GI50 [25]: > 100 µM (inactive)
GI50 [26]: > 100 µM (inactive)
GI50 [27]: > 100 µM (inactive)
GI50 [28]: > 100 µM (inactive)
GI50 [29]: > 100 µM (inactive)
GI50 [30]: > 100 µM (inactive)
GI50 [31]: > 100 µM (inactive)
GI50 [32]: > 100 µM (inactive)
GI50 [33]: > 100 µM (inactive)
GI50 [34]: > 100 µM (inactive)
GI50 [35]: > 100 µM (inactive)
GI50 [36]: > 100 µM (inactive)
GI50 [37]: > 100 µM (inactive)
GI50 [38]: > 100 µM (inactive)
GI50 [39]: > 100 µM (inactive)
GI50 [40]: > 100 µM (inactive)
GI50 [41]: > 100 µM (inactive)
GI50 [42]: > 100 µM (inactive)
GI50 [43]: > 100 µM (inactive)
GI50 [44]: > 100 µM (inactive)
GI50 [45]: > 100 µM (inactive)
GI50 [46]: > 100 µM (inactive)
GI50 [47]: > 100 µM (inactive)
GI50 [48]: > 100 µM (inactive)
GI50 [49]: > 100 µM (inactive)
GI50 [50]: > 100 µM (inactive)
GI50 [51]: > 100 µM (inactive)
GI50 [52]: > 100 µM (inactive)
GI50 [53]: > 100 µM (inactive)
GI50 [54]: > 100 µM (inactive)
GI50 [55]: > 100 µM (inactive)
GI50 [56]: > 100 µM (inactive)
GI50 [57]: > 100 µM (inactive)

CN(C)/C=N\c1cccc2cnccc12
GI50 [1]: > 100 µM (inactive)
GI50 [2]: > 100 µM (inactive)
GI50 [3]: > 100 µM (inactive)
GI50 [4]: > 100 µM (inactive)
GI50 [5]: > 100 µM (inactive)
GI50 [6]: > 100 µM (inactive)
GI50 [7]: > 100 µM (inactive)
GI50 [8]: > 100 µM (inactive)
GI50 [9]: > 100 µM (inactive)
GI50 [10]: > 100 µM (inactive)
GI50 [12]: > 100 µM (inactive)
GI50 [13]: > 100 µM
GI50 [14]: > 100 µM (inactive)
GI50 [15]: > 100 µM (inactive)
GI50 [16]: > 100 µM (inactive)
GI50 [17]: > 100 µM (inactive)
GI50 [18]: > 100 µM (inactive)
GI50 [19]: > 100 µM (inactive)
GI50 [20]: > 100 µM (inactive)
GI50 [22]: > 100 µM (inactive)
GI50 [23]: > 100 µM (inactive)
GI50 [24]: > 100 µM (inactive)
GI50 [25]: > 100 µM (inactive)
GI50 [26]: > 100 µM (inactive)
GI50 [27]: > 100 µM (inactive)
GI50 [58]: > 100 µM (inactive)
GI50 [28]: > 100 µM (inactive)
GI50 [59]: > 100 µM (inactive)
GI50 [29]: > 100 µM (inactive)
GI50 [31]: > 100 µM (inactive)
GI50 [32]: > 100 µM (inactive)
GI50 [33]: 43.2 µM (inactive)
GI50 [34]: > 100 µM (inactive)
GI50 [35]: > 100 µM (inactive)
GI50 [36]: > 100 µM (inactive)
GI50 [37]: > 100 µM (inactive)
GI50 [38]: > 100 µM (inactive)
GI50 [39]: > 100 µM (inactive)
GI50 [40]: > 100 µM (inactive)
GI50 [41]: > 100 µM (inactive)
GI50 [42]: > 100 µM (inactive)
GI50 [43]: > 100 µM (inactive)
GI50 [44]: > 100 µM (inactive)
GI50 [45]: > 100 µM (inactive)
GI50 [46]: > 100 µM (inactive)
GI50 [47]: > 100 µM (inactive)
GI50 [48]: > 100 µM (inactive)
GI50 [49]: 44.8 µM (inactive)
GI50 [50]: > 100 µM (inactive)
GI50 [52]: > 100 µM (inactive)
GI50 [53]: > 100 µM (inactive)
GI50 [54]: > 100 µM (inactive)
GI50 [55]: > 100 µM (inactive)
GI50 [56]: > 100 µM (inactive)
GI50 [57]: > 100 µM (inactive)

CCOC(=O)CCC(NC(=O)Cc1ccc(Nc2nc3ccccc3nc2-c2ccccc2)cc1)C(=O)OCC (centres undefined)
GI50 [1]: 7.83 µM (inactive)
GI50 [2]: 37 µM (inactive)
GI50 [3]: 79.6 µM (inactive)
GI50 [4]: 41.5 µM (inactive)
GI50 [5]: 46.8 µM (inactive)
GI50 [6]: > 100 µM (inactive)
GI50 [7]: > 100 µM (inactive)
GI50 [8]: > 100 µM (inactive)
GI50 [9]: > 100 µM (inactive)
GI50 [10]: 63 µM (inactive)
GI50 [11]: > 100 µM (inactive)
GI50 [12]: > 100 µM (inactive)
GI50 [13]: > 100 µM
GI50 [14]: > 100 µM (inactive)
GI50 [15]: 6.46 µM (inactive)
GI50 [16]: 18.8 µM (inactive)
GI50 [17]: > 100 µM (inactive)
GI50 [18]: 10.2 µM (inactive)
GI50 [19]: 51.8 µM (inactive)
GI50 [20]: > 100 µM (inactive)
GI50 [21]: > 100 µM (inactive)
GI50 [22]: > 100 µM (inactive)
GI50 [23]: 65.6 µM (inactive)
GI50 [24]: > 100 µM (inactive)
GI50 [25]: 16.9 µM (inactive)
GI50 [26]: > 100 µM (inactive)
GI50 [27]: > 100 µM (inactive)
GI50 [58]: > 100 µM (inactive)
GI50 [28]: 33 µM (inactive)
GI50 [59]: 72.1 µM (inactive)
GI50 [29]: 20.7 µM (inactive)
GI50 [30]: > 100 µM (inactive)
GI50 [31]: 20.7 µM (inactive)
GI50 [32]: 50.5 µM (inactive)
GI50 [34]: 6.79 µM (inactive)
GI50 [35]: 93.8 µM (inactive)
GI50 [36]: 25.2 µM (inactive)
GI50 [37]: 17.4 µM (inactive)
GI50 [39]: 10.3 µM (inactive)
GI50 [40]: 5.26 µM (inactive)
GI50 [41]: 16.1 µM (inactive)
GI50 [42]: 20 µM (inactive)
GI50 [43]: > 100 µM (inactive)
GI50 [44]: 16.5 µM (inactive)
GI50 [45]: > 100 µM (inactive)
GI50 [46]: 22.4 µM (inactive)
GI50 [47]: > 100 µM (inactive)
GI50 [48]: 24.2 µM (inactive)
GI50 [49]: 8.79 µM (inactive)
GI50 [50]: > 100 µM (inactive)
GI50 [51]: > 100 µM (inactive)
GI50 [52]: > 100 µM (inactive)
GI50 [53]: 14 µM (inactive)
GI50 [54]: 15.1 µM (inactive)
GI50 [55]: > 100 µM (inactive)
GI50 [56]: 50.4 µM (inactive)
GI50 [57]: > 100 µM (inactive)
